Here are results for two compounds from patent publication US20170224679A1, “Use of CXCR2 Antagonists For The Prevention and/or Treatment of Chemotherapy Induced Peripheral Neuropathy (CIPN)” (GlaxoSmithKline Intellectual Property Development Limited, priority 2014, published 2017).

The target of test [1] is T1, CXCR2 receptor (Homo sapiens, UniProt P25025).
T1 sequence (P25025 1-360): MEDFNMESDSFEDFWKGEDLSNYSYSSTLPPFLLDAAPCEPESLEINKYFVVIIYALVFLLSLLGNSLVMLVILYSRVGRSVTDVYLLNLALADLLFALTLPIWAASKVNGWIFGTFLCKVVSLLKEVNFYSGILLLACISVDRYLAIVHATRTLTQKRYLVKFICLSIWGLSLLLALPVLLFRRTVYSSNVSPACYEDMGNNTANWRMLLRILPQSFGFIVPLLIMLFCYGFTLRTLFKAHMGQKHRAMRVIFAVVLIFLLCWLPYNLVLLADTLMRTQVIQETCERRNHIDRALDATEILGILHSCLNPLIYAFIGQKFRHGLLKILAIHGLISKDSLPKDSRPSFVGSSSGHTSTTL
Description: Receptor binding assay ([125I] IL-8 SPA), CXCR2. Further details: expressed in transfected cells; host or cells: CHO cells (membranes).
Description: High levels of recombinant human CXCR1 and CXCR2 receptors were individually expressed in Chinese hamster ovary (CHO) cells as described in Holmes, et al., Science, 1991, 253, 1278, incorporated herein to the extent required to perform the present assay. The Chinese hamster ovary membranes were prepared according to Haour, et al., J. Biol. Chem., 249 pp 2195-2205 (1974), incorporated herein to the extent required to perform the present assay, except that the homogenization buffer was changed to 40 mM Tris-HCL pH 7.5 containing 1 mM MgSO4, 0.5 mM EDTA (ethylene-diaminetetra-acetic acid), 1 mM PMSF (α-toluene-sulphonyl fluoride), 2.5 mg/L Leupeptin and 0.1 mg/ml Aprotinin. Membrane protein concentration was determined using Bio-Rad Reagent using bovine serum albumin as a standard. All binding assays were conducted using Scintillation Proximity Assay (SPA assay) using wheatgerm agglutinin beads in a 96-well micro plate (optiplate 96, Packard) format. The CHO-CXCR2 and CHO-CXCR1 membranes were pre-incubated with the beads in binding buffer; 20 mM Bis Tris propane, pH 8 containing 25 mM NaCl, 1 mM MgSO4, 0.1 mM EDTA at 4° C. for 30 min prior to assay. The compound was diluted in 100% DMSO at 20 times the final concentration (final 1 nM to 1000 nM and 5% DMSO). […] At the end of the incubation the plates were spun for 5 min at 2000 RPM, and counted in a Top Count counter.

For test [2], the target named is T2, CXCR1 receptor (Homo sapiens, UniProt P25024).
T2 sequence (P25024 1-350): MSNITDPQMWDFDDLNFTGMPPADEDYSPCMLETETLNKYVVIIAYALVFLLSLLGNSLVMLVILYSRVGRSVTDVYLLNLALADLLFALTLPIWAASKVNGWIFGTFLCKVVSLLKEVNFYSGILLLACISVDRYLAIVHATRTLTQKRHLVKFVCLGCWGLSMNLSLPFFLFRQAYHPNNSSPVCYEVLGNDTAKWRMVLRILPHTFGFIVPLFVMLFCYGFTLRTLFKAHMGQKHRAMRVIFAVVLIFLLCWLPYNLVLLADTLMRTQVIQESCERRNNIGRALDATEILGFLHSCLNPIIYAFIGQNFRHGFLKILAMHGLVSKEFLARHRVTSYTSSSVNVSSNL
Nature of the test: Receptor binding assay ([125I] IL-8 SPA), CXCR1. Further details: expressed in transfected cells; host or cells: CHO cells (membranes). The following applies: [125I] IL-8 binding, CHO-CXCR1 membranes; read-out: pIC50 against the CXCR1 receptor (converted). How it is done:
[^125I] IL-8 (human recombinant, IM249) was obtained from Amersham Corp., Arlington Heights, Ill., with specific activity 2000 Ci/mmol. All other chemicals were of analytical grade. High levels of recombinant human CXCR1 and CXCR2 receptors were individually expressed in Chinese hamster ovary (CHO) cells as described in Holmes, et al., Science, 1991, 253, 1278, incorporated herein to the extent required to perform the present assay. The Chinese hamster ovary membranes were prepared according to Haour, et al., J. Biol. Chem., 249 pp 2195-2205 (1974), incorporated herein to the extent required to perform the present assay, except that the homogenization buffer was changed to 40 mM Tris-HCL pH 7.5 containing 1 mM MgSO4, 0.5 mM EDTA (ethylene-diaminetetra-acetic acid), 1 mM PMSF (α-toluene-sulphonyl fluoride), 2.5 mg/L Leupeptin and 0.1 mg/ml Aprotinin. Membrane protein concentration was determined using Bio-Rad Reagent using bovine serum albumin as a standard. All binding assays were conducted using Scintillation Proximity Assay (SPA assay) using wheatgerm agglutinin beads in a 96-well micro plate (optiplate 96, Packard) format. […] The 96-well plates were incubated on a shaking platform for 1 hour. At the end of the incubation the plates were spun for 5 min at 2000 RPM, and counted in a Top Count counter.

The target in test [3] is T2, CXCR1 receptor. Nature of the test: GPCR Arrestin Assay (DiscoveRX PathHunter), CXCR1. Type of test: cell-based. Further details: host or cells: PathHunter CHO cell lines. To be noted: PathHunter CHO cells, agonist at EC80; read-out: pIC50 against the CXCR1 receptor (converted). How it is done:
Certain compounds of the invention were also tested by DiscoveRX Corporation (42501 Albrae Street, Fremont, Calif. 94538, United States) in their GPCR Arrestin Assay to determine their activity against a panel of receptors including CXCR2 and CXCR1. PathHunter CHO cell lines were expanded from freezer stocks according to standard procedures. Cells were seeded in a total volume of 20 μL into white walled, 384-well microplates and incubated at 37° C. for the appropriate time prior to testing. The cells were pre-incubated with antagonist followed by agonist challenge at the EC80 concentration. Intermediate dilution of sample stocks was performed to generate 5× sample in assay buffer. 5 μL of 5× sample was added to cells and incubated at 37° C. or room temperature for 30 minutes. […] Assay signal was generated through a single addition of 12.5 or 15 μL (50% v/v) of PathHunter Detection reagent cocktail, followed by one hour incubation at room temperature. Microplates were read following signal generation with a PerkinElmer Envision™ instrument for chemiluminescent signal detection. Compound activity was analyzed using CBIS data analysis suite (ChemInnovation, Calif.).

Consider `O=C(Nc1ccc(Cl)c(S(=O)(=O)N2CCNCC2)c1O)Nc1cccc(F)c1Cl` [Compound of Formula (A), 1-(4-chloro-2-hydroxy-3-(piperazin-1-ylsulfonyl)phenyl)-3-(2-chloro-3-fluorophenyl)urea], for which the IC50 in test [1] ([125I] IL-8 binding, CHO-CXCR2 membranes, read-out: pIC50 against the CXCR2 receptor (converted)) was 15.8 nM; in test [2], 3160 nM. Besides, the “selectivity for CXCR2 over CXCR1” value in test [1] (receptor binding assay a)) is listed as 188 fold.
As for `CN1CCC(C)(S(=O)(=O)c2c(Cl)ccc(NC(=O)Nc3cccc(F)c3Cl)c2O)CC1` [Compound of Formula (D), 1-(4-chloro-3-((1,4-dimethylpiperidin-4-yl)sulfonyl)-2-hydroxyphenyl)-3-(2-chloro-3-fluorophenyl)urea], in test [3], the IC50 was 2510 nM.
